# Source: US20240425607A1, “IL-18BP ANTAGONIST ANTIBODIES AND THEIR USE IN MONOTHERAPY AND COMBINATION THERAPY IN THE TREATMENT OF CANCER” (Compugen Ltd., priority 2023, published 2024)
# Assays:
# [1] = test system: MC38ova tumor-bearing mice; experiment: Peripheral effects in MC38ova tumor-bearing mice: anti-mIL18BP vs engineered mIL-18; type: in vivo; conditions: single dose, varying concentrations of IL-15
# Description: Nine days pre-inoculum, vials of MC38ova^dim cells were thawed into RPMI media containing 10% FBS, 1% Glutamax, 1% Sodium pyruvate, 1% HEPES, 1% NEAA, 0.01% 2-mercaptoethanol, 1% Penicillin-Streptomycin. Following centrifugation at 300×g for 8 min, cell pellet was resuspended, counted and seeded in a T175 flask. On days −7, −5 and −2, the cells were detached and re-seeded at 6-8*10^6 cells/T175 flask. On the day of inoculum, the cells were detached, centrifuged at 300×g for 10 min, filtered through […] cell strainer and resuspended in RPMI.
# Experiments were performed in C57Bl/6 (female, 6-8 wk, Envigo). Mice were anesthetized with 10% Ketamine and 10% Xylazine mixture injected intraperitoneal. Next, mice were inoculated with MC38ova cells (1.2×10^6) subcutaneously to the right flank in 50 μl/mice.
# At tumor volume of −120 mm^3 (day 9), mice were randomly assigned into treatment groups. Mice were treated with Synagis mouse IgG1, k isotype control 15 mg/kg (IP), anti-mIL18 bp 837 mIgG1 15 mg/kg (IP), PBS (SC), or engineered IL-18 (SC) 0.32 mg/kg. Treatments were injected twice a week for a total of 6 treatments. […] Mice were weighed every week. Mice were bled before the 4th treatment, 4 hours after the 4th treatment, and 24 hours after the 4th treatment. Serum was analyzed for presence of IFNg, TNFα, MCP1, IL6 by Cytometric Bead Array (CBA) Mouse Inflammation Kit (BD Cat. No. 552364). […]
# [2] = test system: tumor infiltrating lymphocytes (TILs) co-cultured with MEL624 cells; experiment: rhIL-18 titration in TIL:MEL624 co-culture; type: cell-based, human; conditions: 24 hr
# Description: Human MEL624 cells were thawed and grown in DMEM with 10% FBS, 1% Glutamax, 1% Penicillin-Streptomycin Solution and 1% HEPES buffer. The cells were then seeded at 75 k cells/well in a 96 well plate in the assay medium (IMDM with 10% human serum, 1% Glutamax, 1% MEM eagle, 1% Sodium Pyruvate and 1% Penicillin-Streptomycin Solution) and incubated 1 hour in 37° C., 5% CO2 incubator before co-culture with human tumor infiltrating lymphocytes that were previously expanded using known melanoma antigens (TILs). Human TILs were thawed in full TIL media and 75 k cells/well were co-cultured with the MEL624 cells to create an effector: target ratio of 1:1. The co-cultured cells were then treated with rhIL-18 (1.23-300 ng/ml). Cells and all added solutions were prepared in full assay medium to a final volume of 200 μl/well. Plates were incubated for 24 hours in 37° C., 5% CO2 incubator, after which the supernatant was collected for cytokine secretion evaluation. All tests were done in triplicates.
Substance,Spleens of mice treated with IL-15 vs controls [1],Concentration at saturation of IFNγ secretion [2] [ng/mL],Concentration that activates TILs (IFNγ secretion) [2] [ng/mL]
IL-15: recombinant IL15 given to mice as comparator cytokine [reference compound],larger than controls,,
rhIL-18: recombinant human IL-18 (R&D systems),,~100,> 1
